From BindingDB's records for doi:10.1021/jm034088d (Abbott Laboratories, 2003)

Biological target: Tyrosine-protein phosphatase non-receptor type 11, SHP-2 (Homo sapiens) (UniProt Q06124)
Experiment: Inhibitory activity against SH-domain containing phosphotyrosine phosphatase-2 (Tyrosine phosphatase SHP2) was determined

Tyrosine-protein phosphatase non-receptor type 11, SHP-2 (Homo sapiens), sequence (Q06124 whole entry, looked up): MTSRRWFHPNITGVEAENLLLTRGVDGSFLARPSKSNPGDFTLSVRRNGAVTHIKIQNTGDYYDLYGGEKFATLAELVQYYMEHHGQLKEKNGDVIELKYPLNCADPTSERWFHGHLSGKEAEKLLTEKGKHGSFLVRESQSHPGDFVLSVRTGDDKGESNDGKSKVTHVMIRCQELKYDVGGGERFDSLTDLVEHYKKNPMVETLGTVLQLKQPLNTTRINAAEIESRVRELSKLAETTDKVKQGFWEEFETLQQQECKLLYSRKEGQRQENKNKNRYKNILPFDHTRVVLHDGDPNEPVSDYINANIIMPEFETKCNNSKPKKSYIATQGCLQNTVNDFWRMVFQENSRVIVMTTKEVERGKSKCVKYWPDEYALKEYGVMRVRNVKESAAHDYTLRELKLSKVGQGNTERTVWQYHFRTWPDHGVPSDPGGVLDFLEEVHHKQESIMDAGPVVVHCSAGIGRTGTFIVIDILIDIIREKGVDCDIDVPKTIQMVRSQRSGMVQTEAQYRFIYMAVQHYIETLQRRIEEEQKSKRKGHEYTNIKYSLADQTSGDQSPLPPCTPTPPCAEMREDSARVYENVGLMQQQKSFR

Structure (SMILES) | Ki
C=CCOC(=O)N[C@@H](Cc1ccc(N(C(=O)C(=O)O)c2ccccc2C(=O)O)cc1)C(=O)NCCCCOc1cccc(O)c1C(=O)OC [(S)-2-(N-(4-(2-(allyloxycarbonylamino)-3-(4-(3-hydroxy-2-(methoxycarbonyl)phenoxy)butylamino)-3-oxopropyl)phenyl)-1-carboxyformamido)benzoic acid] | 96 µM
CCc1cc(CC(NC(C)=O)C(=O)NCCCCOc2cc(Cl)cc(O)c2C(=O)OC)ccc1N(C(=O)C(=O)O)c1ccccc1C(=O)O (configuration not stated) [2-[4-(2-Acetylamino-3-{4-[(2-carboxy-phenyl)-oxalyl-amino]-3-ethyl-phenyl}-propionylamino)-butoxy]-4-chloro-6-hydroxy-benzoic acid methyl ester] | > 3 µM
